Laboratory results from patent US12441985B2, “Methods for making insulin in vivo” (priority 2009, dated 2025).
Where “and” joins values, the source holds several entries; their conditions need not be identical. Equal values may be shown once. Read-outs that look alike come from different tables or passages of the source.

How the values were obtained:
Assay type in all cases: cell-based
[1] = system: human embryonic stem cells line H1; details: for type of insulin expressing cells formed: 500 nM, after six days; for GCG (glucagon expressing cells), percentage of the total cell population / INS (single insulin expressing cells), percentage of the total cell population / INS/GCG (insulin and glucagon co-expressing cells), percentage of the total cell population / Synaptophysin, percentage of the total cell population: Stage 4 six days, TPB 500 nM, ILV 500 nM, GÖ 6976 5 μM, FACS
Procedure: Other protein kinase C activators were also tested. These were Indolactam V (ILV) (Axxora; Cat #ALX-420-011-C300) and phorbol-12-myristate-13-acetate (PMA) (Calbiochem; Cat #524400).

[2] = system: human embryonic stem cells line H1; assay: FACS after six, nine or twelve days of Stage 4 TPB treatment (Example 3); details: 500 nM TPB
Procedure: In another experiment, cells of the human embryonic stem cells line H1 were cultured on […]® (1:30 dilution) coated dishes with RPMI medium+0.2% FBS+100 ng/ml activin A+20 ng/ml WNT-3a for one day followed by treatment with RPMI media+0.5% FBS+100 ng/ml activin A for an additional two days (Stage 1), then • DMEM/F12+2% FBS+50 ng/ml FGF7 for three days (Stage 2), then • DMEM-High glucose+1% B27+50 ng/ml FGF7+0.25 μM Cyclopamine-KAAD+2 μM Retinoic acid (RA)+100 ng/ml of Noggin+20 ng/ml Activin A+a p38 kinase inhibitor (JNJ3026582, at 2.5 μM) for four days (Stage 3), then • Treatment 10: DMEM-High glucose+1% B27+100 ng/ml Noggin+1 μM ALK5 inhibitor II+500 nM TPB for six days (Stage 4, Treatment 10), or • Treatment 11: DMEM-High glucose+1% B27+100 ng/ml Noggin+1 μM ALK5 inhibitor II+500 nM TPB for nine days (Stage 4, Treatment 11), or • Treatment 12: DMEM-High glucose+1% B27+100 ng/ml Noggin+1 μM ALK5 inhibitor II+500 nM TPB for twelve days (Stage 4, Treatment 12)

[3] = system: human embryonic stem cells line H1; assay: FACS and immunocytochemistry after Stage 4 treatment with different concentrations of TPB (Example 1); details: for INS, percentage of the total cell population / NKX6.1, percentage of the total cell population / NKX6.1/INS, percentage of the total cell population / Synaptophysin, percentage of the total cell population: Stage 4 six days
Procedure: In a separate experiment, cells of the human embryonic stem cells line H1 were cultured on MATRIGEL® (1:30 dilution) coated dishes with RPMI medium+0.2% FBS+100 ng/ml activin A+20 ng/ml WNT-3a for one day followed by treatment with RPMI media+0.5% FBS+100 ng/ml activin A for an additional two days (Stage 1), then • a. DMEM/F12+2% FBS+50 ng/ml FGF7 for three days (Stage 2), then • b. DMEM-High glucose+1% B27+0.25 μM Cyclopamine-KAAD+2 μM Retinoic acid (RA)+100 ng/ml of Noggin for four days (Stage 3), then • c. Treatment 1: DMEM-High glucose+1% B27+100 ng/ml Noggin+1 μM ALK5 inhibitor II+500 nM TBP for six days (Stage 4, Treatment 1), or • d. Treatment 2: DMEM-High glucose+1% B27+100 ng/ml Noggin+1 μM ALK5 inhibitor II+100 nM TBP for six days (Stage 4, Treatment 2), or • e. Treatment 3: DMEM-High glucose+1% B27+100 ng/ml Noggin+1 μM ALK5 inhibitor II+20 nM TBP for six days (Stage 4, Treatment 3), or • f. Treatment 4: DMEM-High glucose+1% B27+100 ng/ml Noggin+1 μM ALK5 inhibitor II for six days (Stage 4, Treatment 4).
Immunocytochemistry analysis was used to assess the effects of the different concentrations of TPB on the formation of the cells of the present invention. […] FACS analysis confirmed that both treatments gave rise to 12% single insulin expressing cells in vitro and […] of that population also expressed NKX6.1 (Table 1—NKX6.1/INS expressing cells were 2.4% of the total population).

[4] = system: human embryonic stem cells line H1; assay: Immunocytochemistry of insulin and glucagon expression after Stage 4 TPB treatment (Example 1)
Procedure: Cells of the human embryonic stem cells line H1 were cultured on MATRIGEL® (1:30 dilution) (BD Biosciences; Cat #356231)-coated dishes with RPMI medium (Invitrogen; Cat #: 22400)+0.2% FBS+100 ng/ml activin A (PeproTech; Cat #120-14)+20 ng/ml WNT-3a (R&D Systems; Cat #1324-WN/CF) for one day followed by treatment with RPMI media+0.5% FBS+100 ng/ml activin A for an additional two days (Stage 1), then, • DMEM/F12 (Invitrogen; Cat #11330-032)+2% FBS+50 ng/ml FGF7 (PeproTech; Cat #100-19) for three days (Stage 2), then • DMEM-High glucose (Invitrogen; Cat #10569)+1% B27+50 ng/ml FGF7+0.25 μM Cyclopamine-KAAD (Calbiochem; Cat #239804)+100 ng/ml Noggin (R&D Systems; Cat #3344-NG) for four days (Stage 3), then • DMEM-High glucose+1% B27 (Invitrogen; Cat #0791)+100 ng/ml Noggin+1 μM ALK5 inhibitor II (Axxora; Cat #ALX-270-445)+500 nM TBP ((2S, 5S)-(E, E)-8-(5-(4-(Trifluoromethyl)phenyl)-2,4-pentadiemoylamino) benzolactam) (Calbiochem; Cat #565740) for six days (Stage 4).
As a control, separate populations of cells were treated with DMEM-High glucose+1% B27+100 ng/ml Noggin+1 μM ALK5 inhibitor II for six days (Stage 4, control group). […] Glucagon-expressing cells were also noted in the cultures that received TBP treatment. Most of the glucagon-expressing cells also co-expressed insulin (FIG. 1 panel A and B). […]

[5] = system: human embryonic stem cell line H1; assay: Pancreatic endoderm marker expression after Stage 3 TPB treatment (Example 6)
Procedure: Briefly, cells of the human embryonic stem cell line H1 were cultured on MATRIGEL® (1:30 dilution) coated dishes and RPMI medium supplemented with 0.2% FBS, 100 ng/ml activin A and 20 ng/ml WNT-3a for one day, followed by treatment with RPMI media supplemented with 0.5% FBS and 100 ng/ml activin A, for an additional two days (Stage 1), then • DMEM/F12+2% FBS+50 ng/ml FGF7 for three days (Stage 2), then • T1: DMEM-High glucose+1% B27+0.25 μM Cyclopamine-KAAD+2 μM Retinoic acid (RA)+100 ng/ml of Noggin+FGF10 50 ng/ml for four days (Stage 3, T1) or, • T2: DMEM-High glucose+1% B27+0.25 μM Cyclopamine-KAAD+2 μM Retinoic acid (RA)+100 ng/ml of Noggin+FGF10 50 ng/ml+100 nM TPB for four days (Stage 3, T2), then • DMEM-High glucose+1% B27+100 ng/ml Noggin+1 μM ALK5 inhibitor II for six days (Stage 4)
NKX6.1 was undetectable by immunohistochemistry.

[6] = Stage 4 for nine days (Treatment 11)
[7] = Stage 4 for six days (Treatment 10)
[8] = Stage 4 for twelve days (Treatment 12)
[9] = both 500 nM and 100 nM TPB treatments, FACS
[10] = cultures treated with TPB, immunocytochemistry
[11] = 100 nM TPB at Stage 3 for four days (T2) compared to control group (T1)

CC(C)[C@H]1C(=O)N[C@H](CO)Cc2c[nH]c3cccc(c23)N1C [ILV, Indolactam V]
type of insulin expressing cells formed ([1]; immunocytochemistry): cells co-expressing insulin and glucagon
GCG (glucagon expressing cells), percentage of the total cell population [1]: 12% and 12.6%
INS (single insulin expressing cells), percentage of the total cell population [1]: 3%
INS/GCG (insulin and glucagon co-expressing cells), percentage of the total cell population [1]: 12.9%
Synaptophysin, percentage of the total cell population [1]: 56.8%

CCCCCCCCCCCCCC(=O)O[C@@H]1[C@@H](C)[C@@]2(O)[C@@H](C=C(CO)C[C@]3(O)C(=O)C(C)=C[C@@H]23)[C@@H]2C(C)(C)[C@]12OC(C)=O [PMA, phorbol-12-myristate-13-acetate]
type of insulin expressing cells formed ([1]; immunocytochemistry): cells co-expressing insulin and glucagon

CC(C)[C@H]1C(=O)N[C@H](CO)Cc2cc(NC(=O)/C=C/C=C/c3ccc(C(F)(F)F)cc3)ccc2N1C [TPB, (2S, 5S)-(E, E)-8-(5-(4-(Trifluoromethyl)phenyl)-2,4-pentadiemoylamino) benzolactam]
Glucagon, percentage of the total cell population [2, 6]: 6.6%
Insulin, percentage of the total cell population [2, 6]: 10.0%
Insulin/Glucagon, percentage of the total cell population [2, 6]: 7.8%
NKX6.1, percentage of the total cell population [2, 6]: 33.5%
NKX6.1/Insulin, percentage of the total cell population [2, 6]: 1.0%
Synaptophysin, percentage of the total cell population [2, 6]: 43.5%
Glucagon, percentage of the total cell population [2, 7]: 2.0%
Insulin, percentage of the total cell population [2, 7]: 27.8%
Insulin/Glucagon, percentage of the total cell population [2, 7]: 16.4%
NKX6.1, percentage of the total cell population [2, 7]: 44.2%
NKX6.1/Insulin, percentage of the total cell population [2, 7]: 11.0%
Synaptophysin, percentage of the total cell population [2, 7]: 49.7%
Glucagon, percentage of the total cell population [2, 8]: 4%
Insulin, percentage of the total cell population [2, 8]: 4.4%
Insulin/Glucagon, percentage of the total cell population [2, 8]: 6.3%
NKX6.1, percentage of the total cell population [2, 8]: 32.5%
NKX6.1/Insulin, percentage of the total cell population [2, 8]: 1.0%
Synaptophysin, percentage of the total cell population [2, 8]: 37.6%
insulin and glucagon co-expression ([3]; 20 nM TPB, similar to the control group, immunocytochemistry): most cells co-expressed insulin and glucagon
number of single insulin-expressing cells ([3]; 500 nM and 100 nM TPB treatment groups, immunocytochemistry): Significant increases
INS, percentage of the total cell population ([3]; TPB 100 nM, FACS): 14.4%
NKX6.1, percentage of the total cell population ([3]; TPB 100 nM, FACS): 34.8%
NKX6.1/INS, percentage of the total cell population ([3]; TPB 100 nM, FACS): 3.1%
Synaptophysin, percentage of the total cell population ([3]; TPB 100 nM, FACS): 47.6%
INS, percentage of the total cell population ([3]; TPB 500 nM, FACS): 9.4%
NKX6.1, percentage of the total cell population ([3]; TPB 500 nM, FACS): 45.7%
NKX6.1/INS, percentage of the total cell population ([3]; TPB 500 nM, FACS): 2.4%
Synaptophysin, percentage of the total cell population ([3]; TPB 500 nM, FACS): 38.3%
single insulin expressing cells [3, 9]: 12%
single insulin expressing population that also expressed NKX6.1 [3, 9]: 15%
type of insulin expressing cells formed ([1]; immunocytochemistry): demonstrated the formation of single insulin expressing cells
GCG (glucagon expressing cells), percentage of the total cell population [1]: 4.6%
INS (single insulin expressing cells), percentage of the total cell population [1]: 12%
INS/GCG (insulin and glucagon co-expressing cells), percentage of the total cell population [1]: 7.1%
Synaptophysin, percentage of the total cell population [1]: 30.6%
insulin expressing cells that co-expressed NEUROD [1, 10]: majority
insulin expressing cells that co-expressed NKX6.1 [1, 10]: 20%
insulin expressing cells that co-expressed PDX1 [1, 10]: 20%
insulin expressing cells that co-expressed somatostatin or ghrelin (GHRL) [1, 10]: Very few
insulin-expressing cells ([4]; 500 nM at Stage 4 for six days with Noggin and ALK5 inhibitor II, vs control without it, immunocytochemistry): increase
insulin expressing cells that are single endocrine hormone expressing cells (no glucagon, somatostatin, ghrelin) ([4]; 500 nM at Stage 4 for six days, share of insulin expressing cells): about 60%
NKX6.1 by immunohistochemistry ([5]; 100 nM TPB at Stage 3 for four days (T2)): undetectable
expression of NKX6.1 [5, 11]: significant down-regulation
expression of PDX1 [5, 11]: significant down-regulation
expression of PTF1 alpha [5, 11]: significant down-regulation
